Reference: US11737462B2, “Methods for modulating plant response to environmentally-induced stress” (Howard University, priority 2012, dated 2023)

Legend:
[1] = biological target: RACK1A (Arabidopsis thaliana, UniProt O24456); test: in-vitro assay of tyrosine phosphorylation (Y248) based homodimerization of RACK1A; type: biochemical
Text: A crystal structure of Arabidopsis thaliana RACK1 protein has been reported. Deducing the crystal structure of the Arabidopsis RACK1A protein highlighted the potential functional residues of the protein. Noteworthy in the structure was the functionally conserved tyrosine phosphorylation residue (Y248) that has been implicated in RACK1A function. Therefore, it was undertaken to identify a chemical inhibitor of Y248 phosphorylation that would serve as a potential “anti-stress” compound in countering environmental stresses in plants. In order to identify small compounds occupying the Y248 pocket, docking simulations with a subset of 30,000 compounds were performed. Based on ranking with an energy cut-off of 25 kcal/mol, 3,011 compounds were then selected. Upon further re-ranking, 46 lead compounds were identified and 11 compounds were screened for their efficacy in an in-vitro assay. […] Those six compounds include SD-29, SD-29-9, SD-29-11, SD-29-22, SD-34, and SD-125.

[2] = tested on: Arabidopsis plants; test: salt stress (150 mM salt) in Arabidopsis plants; type: in vivo, Arabidopsis thaliana; settings: 100 μM compound plus 150 mM salt, two weeks, 22° C., vs DMSO plus salt
Experimental: In the examples described herein, the test compounds (e.g., SD-29 or analogs thereof) were dissolved in dimethyl sulfoxide (DMSO) to provide a 20 mM concentration. Micromolar concentrations were then prepared as needed by addition to the water incubation media. Unless stated otherwise, the experimental plants were incubated with the roots immersed in the water containing the compound. The control plants received only DMSO in the same amount as that of the compound. In the first experiment, Arabidopsis plants were treated with 150 mM salt for two weeks. One plant in each group was treated with 100 μM SD-29 plus 150 mM salt and the other plant in each group was treated with DMSO plus 150 mM salt. […] The plants were treated with the indicated treatment twice during the experiment.

[3] = tested on: bean plants; test: salt-induced stress in bean plants; type: in vivo; settings: 60 μM compound plus 250 mM NaCl, 96 hours, about 24° C.
Experimental: In the examples described herein, the test compounds (e.g., SD-29 or analogs thereof) were dissolved in dimethyl sulfoxide (DMSO) to provide a 20 mM concentration. Micromolar concentrations were then prepared as needed by addition to the water incubation media. Unless stated otherwise, the experimental plants were incubated with the roots immersed in the water containing the compound. The control plants received only DMSO in the same amount as that of the compound. Salt-induced stress was evaluated with bean plants at room temperature (about 24° C.) for 96 hours. All plants received sufficient incubation media to last the seven days. Plant A received 60 μM SD-29 plus 250 mM NaCl and plant B received 250 mM NaCl in the incubation medium.

[4] = biological target: T1, rice RACK1A (Oryza sativa subsp. japonica, UniProt P49027); test: western blot with anti-pY248 of rice leaf lysates under salt stress; type: in vivo; settings: 60 μM compound and 250 mM NaCl, 75 μg protein per lane
T1 construct: from tissue; host or cells: rice leaves
Experimental: The rice leaves were also analyzed by Western blot. Lysates were prepared from the leaves and western blot analysis was carried out using standard methods. 75 μg protein were loaded per lane. The membrane containing transferred proteins were probed with anti-pY248, which is an antibody raised to specifically detect phosphorylated tyrosine at residue 248 of RACK1A.

[5] = tested on: chloroplastic Cu—Zn SOD; test: native gel assay of SOD activity in rice leaves; type: in vivo; settings: set up as FIG. 5: 60 μM compound, 250 mM NaCl; wild-type and RACK1 over-expressing (OX) rice
Experimental: Native gel analysis was performed on a lysate prepared from the pepper plant leaves in FIG. 8. The gel is stained for detecting enzymatic activity of different isoforms of superoxide dismutase—key enzymes that detoxify the reactive oxygen species which usually develop during the stress conditions. […] Therefore, it appears that SD-29 may help detoxify the cellular reactive oxygen species generated during the salt stress conditions. The wild-type rice plants were compared to a rice plant over-expressing rice RACK1 protein (referred to as “OX”). The OX plants were treated as described in this example for the wild-type rice plant. Native gel assay was performed as described for FIG. 8 and the experimental set up was exactly the same as described for FIG. 5.

[6] = tested on: Arabidopsis plants; test: drought-induced stress (sorbitol) in Arabidopsis plants; type: in vivo, Arabidopsis thaliana; settings: 150 mM sorbitol plus 60 μM compound, about three weeks, room temperature
Experimental: In the examples described herein, the test compounds (e.g., SD-29 or analogs thereof) were dissolved in dimethyl sulfoxide (DMSO) to provide a 20 mM concentration. Micromolar concentrations were then prepared as needed by addition to the water incubation media. Unless stated otherwise, the experimental plants were incubated with the roots immersed in the water containing the compound. The control plants received only DMSO in the same amount as that of the compound. The effect of SD-29 on modulating drought-induced stress was evaluated with Arabidopsis plants for about three weeks at room temperature. Sorbitol was used to imitate drought conditions. All plants received sufficient incubation media to last the seven days. Plant A was treated with DMSO (in a volume equal to the volume of SD-29 used for Plants B and C), plant B was treated with 150 mM sorbitol plus 60 μM SD-29, plant C was treated with 60 μM SD-29, and plant D was treated with 150 mM sorbitol in the incubation medium.

[7] = tested on: RACK1A:GFP; test: RACK1A:GFP expression in transformed Arabidopsis plants; type: in vivo, Arabidopsis thaliana; settings: 60 μM compound with 250 mM salt for 6 hours
Experimental: Arabidopsis plants transformed with a RAC[…]:GFP construct were analyzed to determine the effect of SD-29 on expression of RAC[…]. The experimental plant was treated with 60 μM SD-29 with 250 mM salt for 6 hours. Controls were treated with and without salt. […] It is quite possible that downregulation of RAC[…] expression by SD-29 may be the cellular mechanism that allow the plants to withstand salt stress.

[8] = tested on: Arabidopsis protoplasts; test: H2O2-induced reactive oxygen species in Arabidopsis protoplasts (H2DCF staining); type: cell-based, Arabidopsis thaliana; settings: H2O2 for 2 hours, 60 μM compound, H2DCF dye
Experimental: In this example, to examine whether SD-29 can prevent generation of reactive oxygen species (ROS) under stress, the effect of SD-29 on H2O2 treated Arabidopsis protoplasts was evaluated. Protoplasts were treated with H2O2 for 2 hours with and without 60 μM SD-29. An untreated control was also evaluated. The protoplasts were stained with reactive oxygen species visualization dye H2DCF that fluoresces in the presence of ROS and the treated protoplasts were evaluated using fluorescent microscopy.

[9] = tested on: Arabidopsis leaves; test: H2O2 accumulation in Arabidopsis leaves (DAB staining); type: in vivo, Arabidopsis thaliana; settings: 5 μM H2O2 and DAB overnight, vs DMSO only
Experimental: Arabidopsis leaves were treated with 5 μM H2O2 and 3,3′-diaminobenzidene (DAB) with and without SD-29 overnight. A control included DMSO only (included in the same volume as SD-29). The brown spots indicate sites of accumulation of H2O2.

RACK1A, sequence (O24456 whole entry): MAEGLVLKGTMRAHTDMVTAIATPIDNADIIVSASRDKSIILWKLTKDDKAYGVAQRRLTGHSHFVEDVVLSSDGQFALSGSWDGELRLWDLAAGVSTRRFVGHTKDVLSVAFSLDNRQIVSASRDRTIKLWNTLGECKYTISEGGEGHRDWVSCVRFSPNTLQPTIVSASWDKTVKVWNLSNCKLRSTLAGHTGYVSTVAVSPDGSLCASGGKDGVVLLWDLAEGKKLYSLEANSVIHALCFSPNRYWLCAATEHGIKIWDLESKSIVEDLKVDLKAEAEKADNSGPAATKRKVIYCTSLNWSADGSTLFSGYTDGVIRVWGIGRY
T1 sequence (P49027 whole entry): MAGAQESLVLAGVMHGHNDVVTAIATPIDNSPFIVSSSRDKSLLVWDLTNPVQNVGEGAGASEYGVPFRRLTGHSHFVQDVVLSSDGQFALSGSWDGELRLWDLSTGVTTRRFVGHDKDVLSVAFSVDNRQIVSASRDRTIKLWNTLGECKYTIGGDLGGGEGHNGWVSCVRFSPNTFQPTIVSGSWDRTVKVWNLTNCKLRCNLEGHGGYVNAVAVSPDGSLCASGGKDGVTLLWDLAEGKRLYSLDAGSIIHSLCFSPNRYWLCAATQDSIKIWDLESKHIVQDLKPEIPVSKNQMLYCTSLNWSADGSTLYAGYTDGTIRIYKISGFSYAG

## Nn1c(S)nnc1-c1ccc(F)cc1 [SD-29]
[1]; data not shown
  IC50: 12.5 µM
[1]; in-vitro assay
  tyrosine phosphorylation (Y248) based homodimerization of RACK1A proteins: prevent tyrosine phosphorylation (Y248) based homodimerization of RACK1A proteins
[2]
  salt stress induced chlorosis of Arabidopsis plants: effective to allow the Arabidopsis plants to withstand the salt stress induced chlorosis
[3]
  bean plant condition in high salt: thrived (did not wilt) in the high salt conditions
[4]
  rice RACK1A tyrosine (Y248) phosphorylation under salt stress: significantly inhibited rice RACK1A tyrosine phosphorylation
[5]
  chloroplastic Cu—Zn SOD activity in rice leaves: upregulates chloroplastic Cu—Zn SOD activity
[6]
  plant performance under drought-imitating sorbitol: performed much better than the plant treated with sorbitol alone
[7]
  RACK1A:GFP expression: down regulation of RACK1A:GFP expression
[8]
  accumulation of H2O2-induced reactive oxygen species in protoplasts: prevented accumulation of H2O2-induced reactive oxygen species
[9]
  H2O2 accumulation in leaves: prevents H2O2 accumulation in the leaves
